This note sets out measurements from patent publication US20120022107A1, “2-(PIPERIDIN-1-YL)-4-AZOLYL-THIAZOLE-5-CARBOXYLIC ACID DERIVATIVES AGAINST BACTERIAL INFECTIONS” (ASTRAZENECA AB, priority 2008, published 2012).

The target of assay [1] is Msmeg (Mycolicibacterium smegmatis, UniProt A0QNE0). The experiment in a line: Msmeg IC50. It counts as biochemical.
Assay [2] has as its system Sau. Kind of assay: Sau MIC. The class given is cell-based, Staphylococcus aureus. Conditions: for MIC: Staphylococcus aureus, read-out: Sau_MIC.
For assay [3], the system named is Hinf. The experiment in a line: Hinf MIC. To be noted: for MIC: Haemophilus influenzae, read-out: Hinf_MIC. The class given is cell-based, Haemophilus influenzae.
Assay [4] has as its system M. tuberculosis. The experiment in a line: MIC testing: Microplate Alamar Blue Assay. It counts as cell-based, Mycobacterium tuberculosis. To be noted: lowest concentration preventing color change from blue to pink; for MIC: Mycobacterium tuberculosis, read-out: Mtu MIC. For orientation: Resazurin is reduced to fluorescent resorufin, in cell work by metabolically active cells.

For assay [5], the system named is Spn. Kind of assay: Spn MIC. The class given is cell-based, Streptococcus pneumoniae. To be noted: for MIC: Streptococcus pneumoniae, read-out: Spn_MIC.

Values after ≈ are worked out from the molar mass of the structure shown.

Msmeg, sequence (A0QNE0 whole entry): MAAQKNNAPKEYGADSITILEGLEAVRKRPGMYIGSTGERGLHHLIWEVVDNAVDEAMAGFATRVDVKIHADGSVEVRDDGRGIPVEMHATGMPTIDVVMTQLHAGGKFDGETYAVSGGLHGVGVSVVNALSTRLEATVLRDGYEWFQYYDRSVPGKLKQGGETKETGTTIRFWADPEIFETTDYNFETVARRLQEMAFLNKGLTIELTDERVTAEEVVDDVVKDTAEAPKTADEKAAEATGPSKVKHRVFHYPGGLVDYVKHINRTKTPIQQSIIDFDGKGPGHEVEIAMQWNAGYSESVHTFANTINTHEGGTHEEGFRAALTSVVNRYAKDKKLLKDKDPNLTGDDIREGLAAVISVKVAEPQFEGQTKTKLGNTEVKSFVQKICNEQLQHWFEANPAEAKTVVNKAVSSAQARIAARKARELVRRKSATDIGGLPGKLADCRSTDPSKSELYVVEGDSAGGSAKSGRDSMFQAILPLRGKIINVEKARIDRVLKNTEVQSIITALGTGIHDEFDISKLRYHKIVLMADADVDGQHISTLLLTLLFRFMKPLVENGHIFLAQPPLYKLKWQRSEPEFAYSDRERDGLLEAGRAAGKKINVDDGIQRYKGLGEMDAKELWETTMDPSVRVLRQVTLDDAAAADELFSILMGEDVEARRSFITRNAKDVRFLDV

For the compound “2-((3S,4R)-4-(3-bromo-4-chloro-5-methyl-1H-pyrrole-2- carboxamido)-3-fluoropiperidin-1-yl)-4-(1- (cyclopropylmethyl)-1H-1,2,4-triazol-5-yl) thiazole-5- carboxylic acid [Example 17]”, it took 4 nM to reach half-maximal inhibition in assay [1] (IC50). This compound returned a Sau_MIC in assay [2] of 0.125 µg/mL. The compound also yielded a Hinf_MIC in assay [3] of 0.125 µg/mL. Moreover, the “Mtu MIC” value in assay [4] was 0.06 µg/mL. In addition, in assay [5], the Spn_MIC was 0.125 µg/mL.

As for `CO[C@H]1CN(c2nc(-c3ncnn3C)c(C(=O)O)s2)CC[C@H]1NC(=O)c1[nH]c(C)c(Cl)c1Br` [Example 1, 2-((3S,4R)-4-{[3-Bromo-4-chloro-5-methyl-1H-pyrrole-2-carbonyl]amino}-3-methoxypiperidin-1-yl)-4-(1-methyl-1H-1,2,4-triazol-5-yl)-1,3-thiazole-5-carboxylic acid], the IC50 in assay [1] was found to be 2.6 nM. For the same compound, the MIC in assay [2] turned out to be 0.116 µg/mL (≈ 0.208 µM); in assay [3], 8 µg/mL (≈ 14.3 µM); in assay [4], 0.008 µg/mL (≈ 0.0143 µM); in assay [5] it was 0.116 µg/mL (≈ 0.208 µM).

The compound `CO[C@H]1CN(c2nc(-c3ncnn3C)c(C(=O)O)s2)CC[C@H]1NC(=O)c1[nH]c(C)c(Br)c1Cl` [Example 2, 2-((3S,4R)-4-{[4-Bromo-3-chloro-5-methyl-1H-pyrrole-2-carbonyl]amino}-3-methoxypiperidin-1-yl)-4-(1-methyl-1H-1,2,4-triazol-5-yl)-1,3-thiazole-5-carboxylic acid] returned an IC50 in assay [1] of under 4 nM. For the same compound, the MIC in assay [2] was 0.1 µg/mL (≈ 0.179 µM); in assay [3], 2.6 µg/mL (≈ 4.65 µM); in assay [4], under 0.03 µg/mL; in assay [5] it was 0.1 µg/mL (≈ 0.179 µM).

Regarding `CO[C@H]1CN(c2nc(-c3nccn3C)c(C(=O)O)s2)CC[C@H]1NC(=O)c1[nH]c(C)c(Cl)c1Br` [Example 3, 2-((3S,4R)-4-{[(3-bromo-4-chloro-5-methyl-1H-pyrrol-2-yl)carbonyl]amino}-3-methoxypiperidin-1-yl)-4-(1-methyl-1H-imidazol-2-yl)-1,3-thiazole-5-carboxylic acid], the IC50 in assay [1] was 6 nM. Further, the MIC in assay [2] was 0.125 µg/mL (≈ 0.224 µM); in assay [3], 0.25 µg/mL (≈ 0.448 µM); in assay [4], 0.125 µg/mL (≈ 0.224 µM); in assay [5], 0.125 µg/mL (≈ 0.224 µM).

As for `CO[C@H]1CN(c2nc(-c3ncnn3C)c(C(=O)O)s2)CC[C@H]1NC(=O)c1[nH]c(Cl)c(C)c1Cl` [Example 4, 2-((3S,4R)-4-{[(3,5-Dichloro-4-methyl-1H-pyrrol-2-yl)carbonyl]amino}-3-methoxypiperidin-1-yl)-4-(1-methyl-1H-1,2,4-triazol-5-yl)-1,3-thiazole-5-carboxylic acid], in assay [1], the IC50 was found to be 30 nM. The MIC in assay [2] worked out at 1.26 µg/mL (≈ 2.45 µM); in assay [3], 4 µg/mL (≈ 7.78 µM); in assay [4], 0.125 µg/mL (≈ 0.243 µM); in assay [5] it was 0.1 µg/mL (≈ 0.194 µM).

As for `Cc1[nH]c(C(=O)N[C@@H]2CCN(c3nc(-c4ncnn4C)c(C(=O)O)s3)C[C@@H]2F)c(Br)c1Cl` [Example 5, 2-((3S,4R)-4-{[(3-Bromo-4-chloro-5-methyl-1H-pyrrol-2-yl)carbonyl]amino}-3-fluoropiperidin-1-yl)-4-(1-methyl-1H-1,2,4-triazol-5-yl)-1,3-thiazole-5-carboxylic acid], the IC50 in assay [1] was under 4 nM. Moreover, the MIC in assay [2] is 0.106 µg/mL (≈ 0.194 µM); in assay [3] it was 27.3 µg/mL (≈ 50 µM); in assay [4] it was under 0.06 µg/mL; in assay [5], 0.106 µg/mL (≈ 0.194 µM).

Compound `Cc1[nH]c(C(=O)N[C@@H]2CCN(c3nc(-c4ncnn4C)c(C(=O)O)s3)C[C@@H]2F)c(Cl)c1Br` [Example 6, 2-((3S,4R)-4-{[(4-Bromo-3-chloro-5-methyl-1H-pyrrol-2-yl)carbonyl]amino}-3-fluoropiperidin-1-yl)-4-(1-methyl-1H-1,2,4-triazol-5-yl)-1,3-thiazole-5-carboxylic acid] returned an IC50 in assay [1] of 5 nM. Besides, the MIC in assay [2] came to 0.125 µg/mL (≈ 0.229 µM); in assay [3] it was 0.25 µg/mL (≈ 0.457 µM); in assay [4] it was 1 µg/mL (≈ 1.83 µM); in assay [5] it was 0.5 µg/mL (≈ 0.914 µM).

Compound `COCCn1ccnc1-c1nc(N2CC[C@@H](NC(=O)c3[nH]c(C)c(Cl)c3Br)[C@@H](OC)C2)sc1C(=O)O` [Example 7, 2-((3S,4R)-4-{[(3-Bromo-4-chloro-5-methyl-1H-pyrrol-2-yl)carbonyl]amino}-3-methoxypiperidin-1-yl)-4-[1-(2-methoxyethyl)-1H-imidazol-2-yl]-1,3-thiazole-5-carboxylic acid] registered an IC50 in assay [1] of 4.6 nM. Also, the MIC worked out at 0.125 µg/mL (≈ 0.208 µM) in assay [2], 0.25 µg/mL (≈ 0.415 µM) in assay [3], 1 µg/mL (≈ 1.66 µM) in assay [4] and 0.125 µg/mL (≈ 0.208 µM) in assay [5].

In turn, `CO[C@H]1CN(c2nc(-c3ncnn3C)c(C(=O)O)s2)CC[C@H]1NC(=O)c1[nH]c(C)c(C#N)c1Br` [Example 8, 2-{(3S,4R)-4-[(3-Bromo-4-cyano-5-methyl-1H-pyrrole-2-carbonyl)-amino]-3-methoxy-piperidin-1-yl}-4-(2-methyl-2H-[1,2,4]triazol-3-yl)-thiazole-5-carboxylic acid] gave an IC50 in assay [1] of under 0.25 nM. Besides, the MIC in assay [2] is 0.5 µg/mL (≈ 0.91 µM); in assay [3], 2 µg/mL (≈ 3.64 µM); in assay [4], under 0.03 µg/mL; in assay [5], 0.125 µg/mL (≈ 0.228 µM).

Compound `CO[C@H]1CN(c2nc(-c3ncnn3C)c(C(=O)O)s2)CC[C@H]1NC(=O)c1[nH]c(C)c(Br)c1C#N` [Example 9, 2-{(3S,4R)-4-[(4-Bromo-3-cyano-5-methyl-1H-pyrrole-2-carbonyl)-amino]-3-methoxy-piperidin-1-yl}-4-(2-methyl-2H-[1,2,4]triazol-3-yl)-thiazole-5-carboxylic acid] displayed an IC50 in assay [1] of 10 nM. In addition, the MIC in assay [2] was 0.25 µg/mL (≈ 0.455 µM); in assay [3] it was 0.25 µg/mL (≈ 0.455 µM); in assay [4], 0.015 µg/mL (≈ 0.0273 µM); in assay [5] it was 0.125 µg/mL (≈ 0.228 µM).

In the case of `CCO[C@H]1CN(c2nc(-c3ncnn3C)c(C(=O)O)s2)CC[C@H]1NC(=O)c1[nH]c(C)c(Cl)c1Br` [Example 10], in assay [1], the IC50 was under 2.5 nM. The MIC in assay [2] was found to be 0.125 µg/mL (≈ 0.218 µM); in assay [3], 0.125 µg/mL (≈ 0.218 µM); in assay [4] it was 0.008 µg/mL (≈ 0.014 µM); in assay [5], 0.125 µg/mL (≈ 0.218 µM).

Consider `CCO[C@H]1CN(c2nc(-c3ncnn3C)c(C(=O)O)s2)CC[C@H]1NC(=O)c1[nH]c(C)c(Br)c1Cl` [Example 11, 2-((3S,4R)-4-(4-bromo-3-chloro-5-methyl-1H-pyrrole-2-carboxamido)-3-ethoxypiperidin-1-yl)-4-(1-methyl-1H-1,2,4-triazol-5-yl) thiazole-5-carboxylic acid], for which the IC50 in assay [1] was under 2.5 nM. Further, the values for the MIC in assay [2], in assay [4] and in assay [5] were 0.125 µg/mL (≈ 0.218 µM), 0.06 µg/mL (≈ 0.105 µM) and 0.125 µg/mL (≈ 0.218 µM), respectively.

Compound `Cc1[nH]c(C(=O)N[C@@H]2CCN(c3nc(-c4ncnn4C)c(C(=O)O)s3)C[C@@H]2OCC2CC2)c(Br)c1Cl` [Example 12, 2-((3S,4R)-4-(3-bromo-4-chloro-5-methyl-1H-pyrrole-2-carboxamido)-3-(cyclopropylmethoxy)piperidin-1-yl)-4-(1-methyl-1H-1,2,4-triazol-5-yl) thiazole-5-carboxylic acid] had an IC50 in assay [1] of 4 nM. In addition, the MIC came to 0.125 µg/mL (≈ 0.209 µM) in assay [2], 0.125 µg/mL (≈ 0.209 µM) in assay [3], 0.015 µg/mL (≈ 0.025 µM) in assay [4] and 0.125 µg/mL (≈ 0.209 µM) in assay [5].

With `CCn1ncnc1-c1nc(N2CC[C@@H](NC(=O)c3[nH]c(C)c(Cl)c3Br)[C@@H](OC)C2)sc1C(=O)O` [Example 13, 2-((3S,4R)-4-(3-bromo-4-chloro-5-methyl-1H-pyrrole-2-carboxamido)-3-methoxypiperidin-1-yl)-4-(1-ethyl-1H-1,2,4-triazol-5-yl) thiazole-5-carboxylic acid], the IC50 in assay [1] was under 2.5 nM. Further, the MIC amounted to 0.125 µg/mL (≈ 0.218 µM) in assay [2], 0.125 µg/mL (≈ 0.218 µM) in assay [3], 0.015 µg/mL (≈ 0.0262 µM) in assay [4] and 0.125 µg/mL (≈ 0.218 µM) in assay [5].

`CCn1ncnc1-c1nc(N2CC[C@@H](NC(=O)c3[nH]c(C)c(Br)c3Cl)[C@@H](OC)C2)sc1C(=O)O` [Example 14, 2-((3S,4R)-4-(4-bromo-3-chloro-5-methyl-1H-pyrrole-2-carboxamido)-3-methoxypiperidin-1-yl)-4-(1-ethyl-1H-1,2,4-triazol-5-yl) thiazole-5-carboxylic acid]: the IC50 in assay [1] is under 2.5 nM. In addition, the MIC in assay [2] came out at 0.125 µg/mL (≈ 0.218 µM); in assay [3], 0.125 µg/mL (≈ 0.218 µM); in assay [4], 0.03 µg/mL (≈ 0.0524 µM); in assay [5], 0.125 µg/mL (≈ 0.218 µM).

For the compound `CCn1ncnc1-c1nc(N2CC[C@@H](NC(=O)c3[nH]c(Cl)c(C)c3Cl)[C@@H](OC)C2)sc1C(=O)O` [Example 15, 2-{(3S,4R)-4-[(3,5-Dichloro-4-methyl-1H-pyrrole-2-carbonyl)-amino]-3-methoxy-piperidin-1-yl}-4-(2-ethyl-2H-[1,2,4]triazol-3-yl)-thiazole-5-carboxylic acid], 45 nM corresponded to half-maximal inhibition in assay [1] (IC50). The MIC in assay [2] is 0.25 µg/mL (≈ 0.473 µM); in assay [3] it was 1 µg/mL (≈ 1.89 µM); in assay [4], 0.5 µg/mL (≈ 0.946 µM); in assay [5], 0.25 µg/mL (≈ 0.473 µM).

Consider `COCCn1ncnc1-c1nc(N2CC[C@@H](NC(=O)c3[nH]c(C)c(Br)c3Cl)[C@@H](OC)C2)sc1C(=O)O` [Example 21, 2-((3S,4R)-4-(4-bromo-3-chloro-5-methyl-1H-pyrrole-2-carboxamido)-3-methoxypiperidin-1-yl)-4-(1-(2-methoxyethyl)-1H-1,2,4-triazol-5-yl) thiazole-5-carboxylic acid], for which the IC50 in assay [1] was under 2.5 nM. For the same compound, the values for the MIC in assay [2], in assay [4] and in assay [5] were 0.125 µg/mL (≈ 0.207 µM), 0.06 µg/mL (≈ 0.0995 µM) and 0.125 µg/mL (≈ 0.207 µM), respectively.

`COCCn1ncnc1-c1nc(N2CC[C@@H](NC(=O)c3[nH]c(Cl)c(C)c3Cl)[C@@H](OC)C2)sc1C(=O)O` [Example 22, 2-((3S,4R)-4-(3,5-dichloro-4-methyl-1H-pyrrole-2-carboxamido)-3-methoxypiperidin-1-yl)-4-(1-(2-methoxyethyl)-1H-1,2,4-triazol-5-yl) thiazole-5-carboxylic acid] yielded an IC50 in assay [1] of 47 nM. Besides, the figures for the MIC in assay [2], in assay [4] and in assay [5] were 0.25 µg/mL (≈ 0.448 µM), 0.5 µg/mL (≈ 0.895 µM) and 0.5 µg/mL (≈ 0.895 µM), respectively.

As a reminder, the IC50 is the point on the concentration scale where inhibition reaches its midpoint. A low value points to higher potency.
